The term pIC50 denotes −log10 of the IC50, conventionally taken in molar units.

Consider eleven compounds from patent US20250332173A1, “COMPOUNDS AND METHODS FOR MODULATING NUCLEIC ACID SPLICING” (REMIX THERAPEUTICS INC., priority 2021, published 2025).

Format in all cases: cell-based, human
One assay has as its system MYB. Kind of assay: HiBiT protein abundance assay, MYB HiBiT K562 cell line. The following applies: HiBiT K562 cell line, 24 hours, top dose 10 μM; read-out: Effect on protein abundance, MYB (IC50 category). Put shortly:
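Endogenous targets in K562 knock-in lines carried a HiBiT tag and were treated for 24 h at 37 °C with 10-point 3-fold dilutions (top 10 μM final, DMSO ≤0.25%). Abundance was read as lytic Nano-Glo HiBiT luminescence. IC50 came from a four-parameter logistic fit of normalized response.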
A general note: HiBiT is a short tag that completes a luciferase, so light tracks the accessible tagged protein.

In assay [1] the test system is Target C. Kind of assay: RT-qPCR splicing assay panel, Target C canonical junction (CJ) mRNA. The following applies: Homo sapiens; Table 5 panel; canonical junction qPCR; compound concentration having 50% response in CJ decrease; read-out: Target C IC50 (decrease in CJ mRNA levels). Put shortly: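 Canonical-junction transcript levels in compound-treated A673 or K562 cells (24 h, up to 10 uM final) were determined from lysates by RT-qPCR with housekeeping-gene normalization.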

The subject of assay [2] is Target C. Put plainly: HiBiT protein abundance assay, Target C (Promega Nano-Glo HiBiT Lytic Detection System, knock-in K562 cell line). The following applies: Homo sapiens, K562, 24 h, HiBiT K562 cell line, 24 hours, top dose 10 μM; read-out: Effect on protein abundance, Target C (IC50 category). In short, it runs like this: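 HiBiT knock-in K562 cells (10,000/well) were treated for 24 h at 37 °C with a 10-point 3-fold dilution series, top final concentration 10 μM, DMSO ≤0.25%. Lytic HiBiT luminescence was read, normalized to unmodified K562 and DMSO-treated controls, and IC50 was interpolated from a four-parameter logistic fit.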

pIC50: −log10 of the molar value.

As for `CCN1CCC(n2ccc3cc(-c4cc(C)c5nc(C)cn5n4)ccc3c2=O)CC1` [Compound 402, 6-{2,8-dimethylimidazo[1,2-b]pyridazin-6-yl}-2-(1-ethylpiperidin-4-yl)isoquinolin-1-one], the pIC50 in the assay with MYB was > 7.00; in the assay on Target C [1], 6.00 to 7.00; in the assay with Target C [2], 6.00 to 7.00.
For the compound `Cc1cn2cc(-c3ccc4c(=O)n([C@H]5CCCNC5)ccc4c3)cc(F)c2n1` [Compound 404, 6-{8-fluoro-2-methylimidazo[1,2-a]pyridin-6-yl}-2-[(3S)-piperidin-3-yl]isoquinolin-1-one], the negative logarithm of the IC50 (pIC50) in the assay on MYB is 6.00 to 7.00; in the assay with Target C [1], < 5.00; in the assay with Target C [2], 5.00 to 6.00.
Turning to `Cc1cn2cc(-c3cc(S(C)(=O)=O)c4c(=O)n(C5CCNCC5)ccc4c3)cc(F)c2n1` [Compound 409, 6-(8-fluoro-2-methylimidazo[1,2-a]pyridin-6-yl)-8-(methylsulfonyl)-2-(piperidin-4-yl)isoquinolin-1(2H)-one], the negative-log IC50 (pIC50) in the assay on MYB, in the assay on Target C [1] and in the assay on Target C [2] was < 5.00 throughout.
On to `Cn1cc2cc(-c3cc(F)c4c(=O)n(C5CCNC6(CC6)C5)ccc4c3)cc(F)c2n1` (stereo not drawn) [Compound 412], for which the negative-log IC50 (pIC50) in the assay with MYB, in the assay with Target C [1] and in the assay with Target C [2] was > 7.00 throughout.
For `Cc1cn2cc(-c3cc(F)c4c(=O)n(C5CCNC6(CC6)C5)ccc4c3)cc(Cl)c2n1` (stereo not drawn) [Compound 413, 2-{4-azaspiro[2.5]octan-7-yl}-6-{8-chloro-2-methylimidazo[1,2-a]pyridin-6-yl}-8-fluoroisoquinolin-1-one], the negative logarithm of the IC50 (pIC50) is > 7.00 in the assay with MYB, 6.00 to 7.00 with Target C [1] and > 7.00 with Target C [2].
As to `Cn1cc2cc(-c3cc(F)c4c(=O)n(C5CCNC6(CC6)C5)ccc4c3)c(O)cc2n1` (stereo not drawn) [Compound 414, 2-{4-azaspiro[2.5]octan-7-yl}-8-fluoro-6-(6-hydroxy-2-methylindazol-5-yl)isoquinolin-1-one], the negative logarithm of the IC50 (pIC50) with MYB is 5.00 to 6.00; in the assay with Target C [1], < 5.00; in the assay on Target C [2], < 5.00.
Turning to `Cc1cc(-c2cc(F)c3c(=O)n(C4CCNC5(CC5)C4)ccc3c2)cc2cn(C)nc12` (stereo not drawn) [Compound 415, 2-{4-azaspiro[2.5]octan-7-yl}-6-(2,7-dimethylindazol-5-yl)-8-fluoroisoquinolin-1-one], the pIC50 in the assay with MYB is > 7.00; in the assay with Target C [1] it was 6.00 to 7.00; in the assay with Target C [2], > 7.00.
With `Cc1cn2cc(-c3cc(F)c4c(=O)n(C5CCNC6(CC6)C5)ccc4c3)cc(C)c2n1` (stereo not drawn) [Compound 416, 2-{4-azaspiro[2.5]octan-7-yl}-6-{2,8-dimethylimidazo[1,2-a]pyridin-6-yl}-8-fluoroisoquinolin-1-one], the pIC50 in the assay on MYB was > 7.00; in the assay with Target C [1], 6.00 to 7.00; in the assay on Target C [2], > 7.00.
For `Cc1nc2c(F)cc(-c3cc(F)c4c(=O)n(C5CCNC6(CC6)C5)ccc4c3)cc2o1` (stereo not drawn) [Compound 417, 2-{4-azaspiro[2.5]octan-7-yl}-8-fluoro-6-(4-fluoro-2-methyl-1,3-benzoxazol-6-yl)isoquinolin-1-one], the pIC50 in the assay on MYB was > 7.00; in the assay with Target C [1], 6.00 to 7.00; with Target C [2], > 7.00.
Consider `Cc1nc2c(C)cc(-c3cc(F)c4c(=O)n(C5CCNC6(CC6)C5)ccc4c3)cc2o1` (stereo not drawn) [Compound 418, 2-{4-azaspiro[2.5]octan-7-yl}-6-(2,4-dimethyl-1,3-benzoxazol-6-yl)-8-fluoroisoquinolin-1-one], for which the values for the pIC50 in the assay on MYB, with Target C [1] and with Target C [2] were > 7.00, 6.00 to 7.00 and > 7.00, respectively.
Take `Cc1c(O)c(-c2cc(F)c3c(=O)n(C4CCNC5(CC5)C4)ccc3c2)cc2cn(C)nc12` (stereo not drawn) [Compound 419, 2-{4-azaspiro[2.5]octan-7-yl}-8-fluoro-6-(6-hydroxy-2,7-dimethylindazol-5-yl)isoquinolin-1-one]: the negative logarithm of the IC50 (pIC50) with MYB is 5.00 to 6.00; in the assay on Target C [1] it was < 5.00; in the assay on Target C [2] it was < 5.00.
